Test results taken from PubChem BioAssay AID2060898 (Molecular Pharmacology Branch, DTP, NCI, 2025).

System: 616215-338-R-J1-PDC complex spheroid viability
Assay: Anticancer human tumor 616215-338-R-J1-PDC patient-derived colon adenocarcinoma cell line growth inhibition [RAS]
Settings: for IC50: curve of first compound; for viability, T/C: stronger effect = lower value; active = viability on the fitted dose curve at most 10% of control; inactive = the rest
Method in brief: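 Multi-cell-type spheroids: tumor cells plus HUVEC endothelial cells and mesenchymal stem cells. RAS-pathway inhibitors were combined with targeted agents, each dosed in half-log steps down from clinical Cmax, or from 10 microM when Cmax was unknown.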

[1] = second compound 0.000949 µM, first compound 0.00316 µM
[2] = second compound 0.000949 µM, first compound 0.01 µM
[3] = second compound 0.000949 µM, first compound 0.0316 µM
[4] = second compound 0.000949 µM, first compound 0.1 µM
[5] = second compound 0.003 µM, first compound 0.00316 µM
[6] = second compound 0.003 µM, first compound 0.01 µM
[7] = second compound 0.003 µM, first compound 0.0316 µM
[8] = second compound 0.003 µM, first compound 0.1 µM
[9] = second compound 0.00949 µM, first compound 0.00316 µM
[10] = second compound 0.00949 µM, first compound 0.01 µM
[11] = second compound 0.00949 µM, first compound 0.0316 µM
[12] = second compound 0.00949 µM, first compound 0.1 µM
[13] = second compound 0.03 µM, first compound 0.00316 µM
[14] = second compound 0.03 µM, first compound 0.01 µM
[15] = second compound 0.03 µM, first compound 0.0316 µM
[16] = second compound 0.03 µM, first compound 0.1 µM
[17] = second compound 0.0949 µM, first compound 0.00316 µM
[18] = second compound 0.0949 µM, first compound 0.01 µM
[19] = second compound 0.0949 µM, first compound 0.0316 µM
[20] = second compound 0.0949 µM, first compound 0.1 µM
[21] = second compound 0.3 µM, first compound 0.00316 µM
[22] = second compound 0.3 µM, first compound 0.01 µM
[23] = second compound 0.3 µM, first compound 0.0316 µM
[24] = second compound 0.3 µM, first compound 0.1 µM
[25] = second compound 0.000949 µM, first compound 0.316 µM
[26] = second compound 0.000949 µM, first compound 1 µM
[27] = second compound 0.000949 µM, first compound 3.16 µM
[28] = second compound 0.000949 µM, first compound 10 µM
[29] = second compound 0.003 µM, first compound 0.316 µM
[30] = second compound 0.003 µM, first compound 1 µM
[31] = second compound 0.003 µM, first compound 3.16 µM
[32] = second compound 0.003 µM, first compound 10 µM
[33] = second compound 0.00949 µM, first compound 0.316 µM
[34] = second compound 0.00949 µM, first compound 1 µM
[35] = second compound 0.00949 µM, first compound 3.16 µM
[36] = second compound 0.00949 µM, first compound 10 µM
[37] = second compound 0.03 µM, first compound 0.316 µM
[38] = second compound 0.03 µM, first compound 1 µM
[39] = second compound 0.03 µM, first compound 3.16 µM
[40] = second compound 0.03 µM, first compound 10 µM
[41] = second compound 0.0949 µM, first compound 0.316 µM
[42] = second compound 0.0949 µM, first compound 1 µM
[43] = second compound 0.0949 µM, first compound 3.16 µM
[44] = second compound 0.0949 µM, first compound 10 µM
[45] = second compound 0.3 µM, first compound 0.316 µM
[46] = second compound 0.3 µM, first compound 1 µM
[47] = second compound 0.3 µM, first compound 3.16 µM
[48] = second compound 0.3 µM, first compound 10 µM
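Also: spheroids exposed to agents for seven days before viability readout.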
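For viability, T/C in this document: 100% = DMSO vehicle control viability.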

CC(C)n1nc(-c2ccc3oc(N)nc3c2)c2c(N)ncnc21 + CCn1c(-c2cc(N3CCN(C)CC3)cnc2C(C)OC)c2c3cc(ccc31)-c1csc(n1)CC(NC(=O)C1CC1C)C(=O)N1CCCC(N1)C(=O)OCC(C)(C)C2
< 0.316 nM: IC50 (second compound 0.03 µM) | IC50 (second compound 0.0949 µM) | IC50 (second compound 0.3 µM)
inactive: viability, T/C (second compound 0.000949 µM, first compound 0.000316 µM) 103% | viability, T/C (second compound 0.000949 µM, first compound 0.001 µM) 93.7% | viability, T/C [1] 110% | viability, T/C [2] 116% | viability, T/C [3] 118% | viability, T/C [4] 63.8% | viability, T/C (second compound 0.003 µM, first compound 0.000316 µM) 114% | viability, T/C (second compound 0.003 µM, first compound 0.001 µM) 108% | viability, T/C [5] 108% | viability, T/C [6] 103% | viability, T/C [7] 86.2% | viability, T/C [8] 39.2% | viability, T/C (second compound 0.00949 µM, first compound 0.000316 µM) 77.2% | viability, T/C (second compound 0.00949 µM, first compound 0.001 µM) 71.4% | viability, T/C [9] 64.5% | viability, T/C [10] 78.8% | viability, T/C [11] 54.8% | viability, T/C [12] 36.4% | viability, T/C (second compound 0.03 µM, first compound 0.000316 µM) 41% | viability, T/C (second compound 0.03 µM, first compound 0.001 µM) 51.2% | viability, T/C [13] 39.5% | viability, T/C [14] 37.3% | viability, T/C [15] 39% | viability, T/C [16] 25% | viability, T/C (second compound 0.0949 µM, first compound 0.000316 µM) 41% | viability, T/C (second compound 0.0949 µM, first compound 0.001 µM) 39.3% | viability, T/C [17] 31.8% | viability, T/C [18] 30.9% | viability, T/C [19] 30.9% | viability, T/C [20] 21.3% | viability, T/C (second compound 0.3 µM, first compound 0.000316 µM) 35.9% | viability, T/C (second compound 0.3 µM, first compound 0.001 µM) 31.1% | viability, T/C [21] 35.9% | viability, T/C [22] 30.1% | viability, T/C [23] 27.8% | viability, T/C [24] 22.8%
> 100 nM: IC50 (second compound 0.000949 µM)
42.8 nM: IC50 (second compound 0.00949 µM)
77.1 nM: IC50 (second compound 0.003 µM)

CC1(O)CCCC1n1c(=O)c(C(F)F)cc2cnc(NC3CCN(S(C)(=O)=O)CC3)nc21 (stereo not drawn) + CCn1c(-c2cc(N3CCN(C)CC3)cnc2C(C)OC)c2c3cc(ccc31)-c1csc(n1)CC(NC(=O)C1CC1C)C(=O)N1CCCC(N1)C(=O)OCC(C)(C)C2
37.4 nM: IC50 (second compound 0.00949 µM)
active: viability, T/C [28] 2% | viability, T/C [36] 2.73%
inactive: viability, T/C [3] 122% | viability, T/C [4] 111% | viability, T/C [25] 54.4% | viability, T/C [26] 47.8% | viability, T/C [27] 46.6% | viability, T/C [7] 113% | viability, T/C [8] 65.1% | viability, T/C [29] 30.5% | viability, T/C [30] 36.8% | viability, T/C [31] 38.9% | viability, T/C [32] 4.05% | viability, T/C [11] 49.9% | viability, T/C [12] 51.1% | viability, T/C [33] 29.7% | viability, T/C [34] 23.9% | viability, T/C [35] 31.9% | viability, T/C [15] 47.4% | viability, T/C [16] 28% | viability, T/C [37] 22.7% | viability, T/C [38] 22.2% | viability, T/C [39] 36.3% | viability, T/C [40] 2.37% | viability, T/C [19] 35% | viability, T/C [20] 27.4% | viability, T/C [41] 21.3% | viability, T/C [42] 22.1% | viability, T/C [43] 28.7% | viability, T/C [44] 2.08% | viability, T/C [23] 31% | viability, T/C [24] 32% | viability, T/C [45] 16.4% | viability, T/C [46] 30.3% | viability, T/C [47] 29.7% | viability, T/C [48] 4.15%
199 nM: IC50 (second compound 0.003 µM)
1130 nM: IC50 (second compound 0.000949 µM)
< 31.6 nM: IC50 (second compound 0.03 µM) | IC50 (second compound 0.0949 µM) | IC50 (second compound 0.3 µM)

CCN1CCN(Cc2ccc(Nc3ncc(F)c(-c4cc(F)c5nc(C)n(C(C)C)c5c4)n3)nc2)CC1 + CCn1c(-c2cc(N3CCN(C)CC3)cnc2C(C)OC)c2c3cc(ccc31)-c1csc(n1)CC(NC(=O)C1CC1C)C(=O)N1CCCC(N1)C(=O)OCC(C)(C)C2
< 3.16 nM: IC50 (second compound 0.03 µM) | IC50 (second compound 0.0949 µM) | IC50 (second compound 0.3 µM)
> 1000 nM: IC50 (second compound 0.000949 µM)
695 nM: IC50 (second compound 0.003 µM)
112 nM: IC50 (second compound 0.00949 µM)
inactive: viability, T/C [1] 102% | viability, T/C [2] 108% | viability, T/C [3] 110% | viability, T/C [4] 123% | viability, T/C [25] 130% | viability, T/C [26] 57.2% | viability, T/C [5] 104% | viability, T/C [6] 112% | viability, T/C [7] 111% | viability, T/C [8] 120% | viability, T/C [29] 75.3% | viability, T/C [30] 38.4% | viability, T/C [9] 82.2% | viability, T/C [10] 64% | viability, T/C [11] 59.9% | viability, T/C [12] 51.3% | viability, T/C [33] 49.5% | viability, T/C [34] 26.6% | viability, T/C [13] 51% | viability, T/C [14] 38.1% | viability, T/C [15] 39.4% | viability, T/C [16] 32.5% | viability, T/C [37] 33.4% | viability, T/C [38] 27.5% | viability, T/C [17] 33.2% | viability, T/C [18] 32.3% | viability, T/C [19] 26.7% | viability, T/C [20] 25.8% | viability, T/C [41] 34.5% | viability, T/C [42] 29.8% | viability, T/C [21] 34.5% | viability, T/C [22] 32.2% | viability, T/C [23] 30.3% | viability, T/C [24] 33.1% | viability, T/C [45] 35.9% | viability, T/C [46] 25.3%

C[C@@H](NC(=O)c1ncnc(N)c1Cl)c1ncc(C(=O)Nc2cc(C(F)(F)F)c(Cl)cn2)s1 + CCn1c(-c2cc(N3CCN(C)CC3)cnc2C(C)OC)c2c3cc(ccc31)-c1csc(n1)CC(NC(=O)C1CC1C)C(=O)N1CCCC(N1)C(=O)OCC(C)(C)C2
8750 nM: IC50 (second compound 0.000949 µM)
1570 nM: IC50 (second compound 0.00949 µM)
inactive: viability, T/C [3] 102% | viability, T/C [4] 104% | viability, T/C [25] 117% | viability, T/C [26] 105% | viability, T/C [27] 96.3% | viability, T/C [28] 43.9% | viability, T/C [7] 114% | viability, T/C [8] 129% | viability, T/C [29] 102% | viability, T/C [30] 87.2% | viability, T/C [31] 66.2% | viability, T/C [32] 42.6% | viability, T/C [11] 95.3% | viability, T/C [12] 78% | viability, T/C [33] 72.5% | viability, T/C [34] 61% | viability, T/C [35] 35.8% | viability, T/C [36] 21.4% | viability, T/C [15] 58.9% | viability, T/C [16] 62.2% | viability, T/C [37] 42.3% | viability, T/C [38] 41.1% | viability, T/C [39] 30% | viability, T/C [40] 25.1% | viability, T/C [19] 41.9% | viability, T/C [20] 57.1% | viability, T/C [41] 38.5% | viability, T/C [42] 33.2% | viability, T/C [43] 23.2% | viability, T/C [44] 16.6% | viability, T/C [23] 36.3% | viability, T/C [24] 35.6% | viability, T/C [45] 39% | viability, T/C [46] 33.7% | viability, T/C [47] 22.6% | viability, T/C [48] 13.2%
< 31.6 nM: IC50 (second compound 0.0949 µM) | IC50 (second compound 0.3 µM)
6940 nM: IC50 (second compound 0.003 µM)
243 nM: IC50 (second compound 0.03 µM)
